{"source": "patent US20060040253A1", "about": "“Use of Smad3 inhibitor in the treatment of fibrosis dependent on epithelial to mesenchymal transition as in the eye and kidney” (priority 2003, published 2006)", "molecules": {"B1": {"name": "PDGF-BB: exogenous PDGF-BB, a potent mitogen, 5.0 ng/ml (protein, UniProt P01127 82-190, looked up)", "Platelet-derived growth …": "SLGSLTIAEPAMIAECKTRTEVFEISRRLIDRTNANFLVWPPCVEVQRCSGCCNNRNVQCRPTQVQLRPVQVRKIEIVRKKPIFKKATVTLEDHLACKCETVAAARPVT", "modifications": "homodimer PDGF-BB"}}, "key": {"[1]": {"tested_on": "α-TN4", "experiment": "Snail up-regulation in α-TN4 lens epithelial cell line after TGF-β addition", "assay_type": "cell-based, mouse", "settings": "prior to up-regulation of αSMA"}, "[2]": {"tested_on": "ARPE-19 cells", "experiment": "Production of PDGF, TGF-β1 and collagen type I in ARPE-19 cells treated with TGF-β2", "assay_type": "cell-based, human", "settings": "for amount of type I collagen in culture medium and cell lysate (ELISA): 48 hr", "procedure": "Expression of PDGF-BB in ARPE-19 cells was assessed by western blot of cell lysates using PDGF-B (H-55, Santa Cruz Biotechnology, Inc.). Enzyme-linked immunosorbent assays (ELISAs) for PDGF-BB, PDGF-AB and TGF-β1 (R & D Systems, Inc., Minneapolis, Minn.) were used to determine the concentration of each peptide in the culture medium. ARPE-19 cells were grown in 6-well plates to near confluence and then cultured in 500 μl of serum-free DMEM/F-12 supplemented with antibiotics in the presence or absence of human recombinant TGF-β2 (1.0 ng/ml R & D Systems, Inc., Minneapolis, Minn.) for 48 or 96 hrs. Nine wells were prepared for each culture condition. Medium was processed for ELISAs for determination of the concentration of PDGF-BB and -AB according to the manufacturers' protocols. Medium (48 hr) was also processed for the determination of TGF-β1 by an ELISA kit (R & D Systems, Minneapolis, Minn.). Type I collagen was quantified in medium and sonicated cell lysates (48 hr) and processed for an ELISA system for type I collagen C-terminal peptide (PIP ELISA kit, Takara, Tokyo, Japan). Confluent cells grown on a chamber slides (Nunc) were immunostained for collagen type I (1:100 dilution in PBS, Southern Biotechnology)."}, "[3]": {"tested_on": "renal tubular epithelial cells", "experiment": "TGF-β1-induced EMT and autoinduction in primary culture of renal tubular epithelial cells", "assay_type": "cell-based, mouse", "settings": "wild-type cells, TGF-β1 10 ng/ml", "procedure": "Minced kidneys were washed with 3 changes of cold PBS containing 1 mM EDTA and digested in 0.25% trypsin solution (Gibco BRL, Grand Island, N.Y.) in a shaking incubator at 37° C. for 2 h. Trypsin was neutralized with growth medium (DMEM/10% FBS containing 100 unit/ml penicillin and 0.1 mg/ml streptomycin). The suspension was triturated by pipetting and passed through a 100 μm cell strainer (Becton Dickinson Labware, Franklin Lakes, N.J.). The filtrate consisting mostly of dispersed renal tubules was plated onto culture dishes (Nalge Nunc International, Naperville, Ill.) and 2-well chamber slides (Nunc Lab-Tek II-CC2, Nalge Nunc International), and incubated at 37° C. in a CO2 incubator with medium changes every 2 days. Experiments were carried out in serum-free DMEM. EMT was induced by an addition of 10 ng/ml TGF-β1 (R&D Systems, Minneapolis, Minn.). Mouse monoclonal anti-TGF-β neutralizing antibody (clone: 1D11, R & D Systems) was used at a concentration of 20 μg/ml with mouse IgG (Sigma, St Louis, Mo.) as a control.\nHistological sections were prepared from tissues fixed in 4% paraformaldehyde in 0.1 M phosphate buffer, pH 7.4, and embedded in paraffin. Cryosections and bottom sheets of BioFlex were fixed in cold acetone and subjected to indirect immunofluorescence with anti-E-cadherin (clone: DECMA-1, Sigma, St Louis, Mo.), anti-α-SMA (clone: 1A4, NeoMarkers, Fremont, Calif.), anti-mouse type I collagen (Southern Biotechnology, Birmingham, Ala.) and anti-mouse F4/80 antibodies (clone: A3-1, BMA, Augst, Switzerland). As second antibodies, FITC-anti-rat IgG (Sigma), TRITC-anti-mouse IgG (Sigma) or Cy3-anti-goat IgG (Sigma) were used.\nCells and tissues were lysed in buffer containing 1% Nonidet P-40, 25 mM Tris-HCl, pH 7.5, 150 mM NaCl, 10 mM EDTA and 1:50 dilution of a protease inhibitor cocktail (P-2714, Sigma). Proteins were separated by SDS-PAGE, transferred to nitrocellulose membranes, and blocked in 5% skim milk in PBS. After incubation with primary antibodies against E-cadherin (clone: 36, Transduction Laboratories, Lexington, Ky.), α-SMA (clone: 1A4) and actin antibodies (Sc-1616, Santa Cruz Biochemicals, Santa Cruz, Calif.), blots were reacted with POD-conjugated goat anti-mouse IgG secondary antibody (Sigma) and developed with ECL (Amersham Biosciences, Buckingshire, UK).\nTotal RNA was extracted with TRIzol reagent (Invitrogen, Carlsbad, Calif.). RNA (20 μg/lane), separated in 1% agarose-formaldehyde gels and transferred to Hybond-HX nylon membranes (Amersham). Membranes were hybridized with cDNA probes for mouse Snail and TGF-β1 mRNA labeled with [P^32] dCTP by random primed DNA synthesis using the same primers as above (Rediprime II, Amersham Pharmacia Inc., Piscataway, N.J.). Filters were exposed to X-ray film at −80° C. for 2 to 3 d. […]"}, "[4]": {"tested_on": "lens epithelium", "experiment": "Organ-culture of mouse lenses with TGF-β2", "assay_type": "cell-based", "settings": "TGF-β2 10 ng/ml, not KO", "procedure": "The crystalline lens was carefully removed from enucleated eyes of adult Smad3-KO or WT mice and processed for organ-culture as previously described (Saika, S. et al. 2003 Invest Ophthalmol Vis Sci 44: 2094-2102). Three lenses were used in each culture condition. The lens was incubated in DMEM supplemented with antibiotics in the presence and absence of porcine TGF-β2 (10 ng/ml) with a medium change every 2 days. After 5 or 10 days of culture, the tissue was fixed in 2.0% paraformaldehyde as described above. Paraffin sections were processed for histology and immunohistochemistry.\nSections (5 μm) were deparaffinized and stained with hematoxylin and eosin (HE) alone or with polyclonal antibodies against collagen types I and V (both 1:100 dilution in PBS, Southern Biotechnology, Birmingham, Ala.), rabbit polyclonal anti-lumican antibody (10 μg/ml)(Saika, S. et al. 2000 J Biol Chem 275: 2607-2612), or with a mouse monoclonal anti-αSMA antibody (1:100 dilution in PBS, NeoMarker, Fremont, Calif., USA), rabbit polyclonal antibodies against the TGF-β isoforms as previously reported (Flanders, K. C. et al. 1991 Development 113: 183-191), or with non-immune IgG (control). After binding of labeled secondary antibody and the color reaction with 3,3′-diaminobenzidine, sections were counterstained with methyl green and mounted in balsam. […]"}, "[5]": {"tested_on": "ARPE-19 cells", "experiment": "Proliferation of ARPE-19 cells (MTT assay)", "assay_type": "cell-based, human", "settings": "sparse cultures, up to 120 hr; PDGF-BB 5 ng/ml, TGF-β2 1 ng/ml", "procedure": "Effects of adding TGF-β2, PDGF-BB, and/or anti-PDGF-B-neutralizing antibody on proliferation of ARPE-19 cells were assessed using the MTT assay (TACS MTT Cell Proliferation Assay Kit, Trevigen, Gaithersburg, Md., USA) according to manufacturer's instruction. ARPE 19 cells suspended in DMEM/F-12 supplemented with 15% fetal calf serum (2×10^4/100 μl/well) were seeded in 96-well culture plates (8 wells for each condition). After 12 hrs cells were changed to 100 μl serum-free culture medium and cultured for an additional 120 hr supplemented with PDGF-BB (5.0 ng/ml) or TGF-β2 (1.0 ng/ml), with either neutralizing anti-PDGF-B antibody (20 μg/ml) or non-immune IgG (20 μg/ml) as control. At the end of each culture interval, MTT reagent (10 μl) was added to each well and the incubation continued for an additional 5 hr at 37° C. Optical density at 570 nm was measured 4 hr after adding the lysis solution contained in the kit."}, "[6]": {"tested_on": "RPE cells", "experiment": "Wounding of the RPE cell layer in organ-cultured mouse globes", "assay_type": "cell-based", "settings": "TGF-β2 10 ng/ml, WT posterior segments; KO negative", "procedure": "Both eyes were enucleated immediately after being sacrificed as described above. Anterior eye segment structures (cornea and lens) and retina were carefully removed from the globe. After the RPE cell layer had been wounded by scraping using a silicone needle, the tissue was cultured in Eagle's medium supplemented with 10% fetal calf serum in the presence or absence of human recombinant TGF-β2 at 10 ng/ml for 48 hr. The tissue was fixed and embedded in paraffin as previously described (Example 1).\nSections (5 μm) were deparaffinized and stained with hematoxylin and eosin (HE) alone or with polyclonal antibodies against collagen type VI (1:100 dilution in PBS, Southern Biotechnology, Birmingham, Ala.), rabbit polyclonal anti-lumican antibody (10 μg/ml (Saika, S. et al. 2000 J Biol Chem 275:2607-2612)), mouse monoclonal anti-αSMA antibody (1:100 dilution in PBS, NeoMarker, Fremont, Calif., USA), goat polyclonal anti-PDGF-B antibody (1:200 dilution in PBS, Santa Cruz), mouse monoclonal anti-proliferating cell nuclear antigen (PCNA) antibody (1:100 dilution in PBS, Santa Cruz) or with non-immune IgGs (control). After binding of FITC-labeled secondary antibodies (1:100 dilution in PBS, Cappel ICN, Aurora, Ohio, USA), the specimens were observed under fluorescent microscopy followed by mounted with VectaShield with nuclear DAPI staining. […]"}, "[7]": {"tested_on": "primary porcine RPE cells", "experiment": "EMT in primary cultures of porcine RPE cells (αSMA immunostaining)", "assay_type": "cell-based", "settings": "TGF-β2 10 ng/ml, 48 hr; not in its absence", "procedure": "Cultures of primary porcine RPE cells were prepared by aspirating RPE layers from a hemi-sectioned pig eye after removing the retina by using a micropipette, and putting the aspirate in a 30-mm diameter collagen-coated plastic culture dish to allow the epithelial cells to outgrow. After reaching confluence, the cells were trypsinized, suspended in Dulbecco's modified Eagle's essential medium (DMEM) supplemented with 10% fetal calf serum, and seeded on fibronectin-coated chamber slides (Falcon, Becton Dickinson, Lincoln Park, N.J.) in the presence and absence of 10 ng/ml of porcine TGF-β2 (R & D systems Inc., Minneapolis, Minn.). At 24 hr culture intervals the cells were fixed and immunostained for αSMA."}, "[8]": {"tested_on": "ARPE-19 cells", "experiment": "ARPE-19 cell migration, in vitro closure of a defect in a monolayer cell sheet", "assay_type": "cell-based, human", "settings": "TGF-β2 1.0 ng/ml; 24 hrs for the untreated culture", "from_the_text": "(§1) The ARPE-19 human RPE cell line (ATCC # CRL-2302) (Dunn, K. C. et al. 1996 Exp Eye Res 62:155-169) was used to assess effects of […] TGF-β2 on expression of αSMA and Smad3 activation as previously described (EXAMPLE 1). Effect of addition of TGF-β2 on ARPE-19 cell migration was examined by using a model of in vitro closure of a monolayer cell sheet as previously reported (Saika, S. et al. 1995 Graefes Arch Clin Exp Ophthalmol 233:347-353)."}, "[9]": {"tested_on": "ARPE-19 cells", "experiment": "EMT and Smad phosphorylation in ARPE-19 cells", "assay_type": "cell-based, human", "from_the_text": "as §1"}}}
{"molecule": "TGF-β", "values": [{"measurement": "earliest time of snail up-regulation after TGF-β addition", "setting": "[1]", "value": 30, "unit": "min"}]}
{"molecule": "TGF-β1: exogenous TGF-β1 (R&D Systems), growth factor used to induce EMT", "values": [{"measurement": "amount of type I collagen in culture medium and cell lysate (ELISA)", "setting": "[2]", "value": "increase"}, {"measurement": "Snail mRNA (Northern blot)", "setting": "[3]; 8 h, not in Smad3-null cells", "value": "de novo expression of Snail mRNA"}, {"measurement": "TGF-β1 mRNA expression (autoinduction)", "setting": "[3]; 24 h, vs non-treated wild-type, not in Smad3-null cells", "value": "enhanced expression of TGF-β1 mRNA"}, {"measurement": "cell morphology (phase-contrast microscopy)", "setting": "[3]; 24 h, Smad3-null cells retained epithelial monolayer", "value": "spindle-shaped, fibroblastic appearance"}, {"measurement": "E-cadherin and α-SMA by dual immunofluorescence", "setting": "[3]; 24 h, not seen in Smad3-null cells", "value": "Marked reduction of E-cadherin and de novo expression of α-SMA"}]}
{"molecule": "TGF-β2: exogenous TGF-β2 growth factor; porcine or human recombinant depending on experiment", "values": [{"measurement": "amount of type I collagen in culture medium and cell lysate (ELISA)", "setting": "[2]", "value": "increase"}, {"measurement": "PDGF-AB production (ELISA)", "setting": "[2]; TGF-β2 1.0 ng/ml", "value": "significantly increased"}, {"measurement": "concentration of PDGF-BB in culture medium (ELISA)", "setting": "[2]; TGF-β2 1.0 ng/ml, 96 hrs", "value": "approximately 500 pg/ml"}, {"measurement": "PDGF-B protein expression (Western blotting)", "setting": "[2]; TGF-β2 1.0 ng/ml, beginning about 48-72 hrs after addition", "value": "time-dependent up-regulation"}, {"measurement": "PDGF-BB protein secreted into the culture medium, increase above control cultures (ELISA)", "setting": "[2]; TGF-β2 1.0 ng/ml, confluent cultures", "value": "over 2 fold"}, {"measurement": "expression of TGF-β1 in medium (ELISA)", "setting": "[2]; exogenous TGF-β2, 48 hr", "value": "significant increase"}, {"measurement": "lens epithelium morphology and EMT markers (lumican, αSMA, collagen type I)", "setting": "[4]; 10 days, WT lenses", "value": "multilayer of cells of a fibroblastic morphology"}, {"measurement": "expression of lumican", "setting": "[4]; day 5, WT lenses", "value": "up-regulated expression of lumican"}, {"measurement": "growth of the cells (MTT assay)", "setting": "[5]", "value": "inhibited"}, {"measurement": "αSMA expression in wounded pigment epithelium", "setting": "[6]", "value": "expresses αSMA faintly at 24 hr and then clearly at 48 hr"}, {"measurement": "αSMA expression", "setting": "[7]", "value": "express αSMA"}, {"measurement": "time to closure of the defect in wounded monolayer", "setting": "[8]", "value": "≤ 12", "unit": "h"}, {"measurement": "αSMA expression", "setting": "[9]; TGF-β2 for 72 hr", "value": "clusters of αSMA positive cells"}, {"measurement": "time of highest level of nuclear translocation of Smad3 after addition of TGF-β2", "setting": "[9]; immunofluorescence, no longer detectable at 24 hr", "value": 1, "unit": "h"}, {"measurement": "time to phosphorylation of Smads2/3 after TGF-β2 exposure (Western blotting)", "setting": "[9]; remained activated up to 48 hrs", "value": "≤ 30", "unit": "min"}]}
{"molecule": "B1", "values": [{"measurement": "growth of the cells (MTT assay)", "setting": "[5]", "value": "enhanced"}]}
